These results are taken from patent publication US20120322886A1, “USE OF A SATURATED AMINES COMPOUND IN MANUFACTURE OF MEDICAMENTS FOR […] HEMATOPOIETIC STEM CELL” (Institute of Transfusion Medicine, Academy of Mili -tary …, priority 2009, published 2012).

The test system of assay [1] is CD34+ cells in peripheral blood. Description: Percentage of CD34+ cells in peripheral blood by flow cytometry. Type of assay: in vivo, C57 mice. Particulars: 5 mg/kg hypodermic injection, 4 h post injection, tail blood; compared to DMSO and G-CSF (FIG. 2). The method, then:
9 C57 mice (Experimental animal center, Academy of Military Medical Sciences), male, were randomly divided into 3 groups: DMSO (Beijing Chemical Inc.) group with 3 mice, G-CSF (Xiamen Baote Biotechnology Inc.) group with 3 mice, TA01 group with 3 mice. Injection volume was calculated on the basis of 5 mg/kg body weight, and the medium for the injection was TE buffer with pH 7.5-8.5. At 4 h post hypodermic injection, 100 μL blood was harvested from tail and treated with RBC lysis buffer (Jingmei Biotechnology Inc.), wherein, the volume ratio of the blood to the RBC lysis buffer was 1:10. The two were uniformly mixed, stood for 10-15 min under room temperature, and then centrifuged for 6 min at 1500 rpm/min. After removing the supernatant, 100 ul 1% (v/v) serum (Hyclone Inc.) was added and mixed. Then 0.75 ul purified anti-mouse CD34 (Biolegend Inc) was added (operated on a superclean bench), mixed, and incubated for 1-2 h under room temperature. The mixture was added up to 1.5 ml with PBS containing 1% (v/v) serum, and then centrifuged for 5 min at 1500 rpm/min. After removing the supernatant, 100 ul 1% (v/v) serum was added and mixed. Then 2 ul Goat anti Mice antibody labeled with FITC (Beijing Zhongshanjinqiao Biotechnology Limited Co.) was added, mixed and incubated for 30 min under room temperature. […]

The subject of the next assay is WBCs in peripheral blood. Description: Number of WBCs in peripheral blood (Sysmex Microcell Counter). In kind it is in vivo, C57 mice. Conditions: 5 mg/kg hypodermic injection, 4 h post injection, tail blood; compared to DMSO and G-CSF (FIG. 3). The method, then:
9 C57 mice, male, were randomly divided into 3 groups: DMSO group with 3 mice, G-CSF group with 3 mice, and TA01 group with 3 mice. Injection volume was calculated on the basis of 5 mg/kg body weight, and the medium for injection was TE buffer with pH 7.5-8.5. At 4 h post hypodermic injection, 10 μl blood was harvested from tail and treated with 2 ml cell diluting buffer (Jinnan Bolai Biotechnology Limited Co.). The number of WBCs was determined by a Sysmex Microcell Counter.

The subject of the next assay is MNCs in peripheral blood. Put plainly: CFU and CFU-GM generated by MNCs in peripheral blood (semisolid medium culture). Conditions: 5 mg/kg hypodermic injection, blood at 4 h, MNCs cultured 7 days; compared to DMSO and G-CSF (FIG. 4). In kind it is in vivo, C57 mice. The method, then: 9 C57 mice, male, were randomly divided into 3 groups: DMSO group with 3 mice, G-CSF group with 3 mice, TA01 group with 3 mice. Injection volume was calculated on the basis of 5 mg/kg body weight, and the medium for injection was TE buffer with pH 7.5-8.5. At 4 h post hypodermic injection, the eyeballs were extracted and the peripheral blood was collected into a 10 ml centrifuge tube which was rinsed with heparin (Tianjin Haoyang Bioproduct Technology Limited Co.) in advance, and then PBS (Hyclone Inc.) was added up to 5 ml and mixed. Mouse percoll (Tianjin Haoyang Bioproduct Technology Limited Co.) was preloaded into vials at 5 ml/vial (operated on a superclean bench), and then the blood mixed with PBS was slightly impregnated into the upper layer of the percoll and centrifuged for 20 min at 2000 rpm/min. Cells in the middle layer were transferred into a new 10 ml centrifuge tube which was filled up to 10 ml with PBS, and centrifuged for 5 min at 1500 rpm/min to remove PBS in the supernatant. The tube was filled up to 10 ml with PBS, centrifuged for another 5 min at 1500 rpm/min to remove PBS in the supernatant. Then, the tube was filled up to 1 ml with PBS. The number of cells was then counted and the number of the mononuclear cells (MNCs) per ml of the solution was calculated. […] Finally, CFU and CFU-GM were counted.

Assay [2] deals with mice receiving a lethal irradiation. Put plainly: Survival of lethally irradiated mice after transplant of mobilized peripheral blood MNCs. In kind it is in vivo, C57 mice. Particulars: 7.0 Gy 60Co irradiation; tail vein injection of MNCs from donors given 5 mg/kg, 4 h; survival in 30 days; compared to DMSO and G-CSF (FIG. 5). The protocol:
9 C57 mice, male, were randomly divided into 3 groups, and then received a whole body irradiation by ^60Co γ ray at 2.72 Gy/min with a volume of 7.0 Gy. 9 C57 mice, male, were randomly divided into 3 groups: DMSO group with 3 mice, G-CSF group with 3 mice, and TA01 group with 3 mice. Injection volume was calculated on the basis of 5 mg/kg body weight, and the medium for injection was TE buffer with pH 7.5-8.5. At 4 h post hypodermic injection, the eyeballs were extracted and peripheral blood was collected into a 10 ml centrifuge tube which was rinsed with heparin in advance, and then PBS was added up to 5 ml and mixed. Mouse percoll (Tianjin Haoyang Bioproduct Technology Limited Co.) was preloaded into vials at 5 ml/vial (operated on a superclean bench), and then the blood mixed with PBS was slightly impregnated to the upper layer of the percoll and centrifuged for 20 min at 2000 rpm/min. Cells in the middle layer were transferred into a new 10 ml centrifuge tube which was filled up to 10 ml with PBS, centrifuged for 5 min at 1500 rpm/min to remove PBS in the supernatant. The tube was filled up to 10 ml with PBS, and centrifuged for another 5 min at 1500 rpm/min to remove PBS in the supernatant. Then the tube was filled up to 0.5 ml with PBS. […] The number of survival mice in 30 days was counted.

For the next assay, the system named is hematopoietic stem cells. Put plainly: Mobilization of hematopoietic stem cells into peripheral blood (overall conclusion). Type of assay: in vivo. Conditions: summary statement; verification processes for other compounds not described.

Molecules are shown by their SMILES.

On to `CN(C)CCN(CCN(C)C)CCN(C)C` [TA01, Tris[2-(dimethylamino)ethyl]amine], for which, in assay [1], the “percentage of CD34+ cells in peripheral blood” value is “can increase the percentage of CD34+ cells in peripheral blood compared to DMSO and G-CSF”. Further, the “number of WBCs in peripheral blood” value in the assay on WBCs in peripheral blood was “can increase the number of WBCs in peripheral blood compared to DMSO and G-CSF”. Also, in the assay on MNCs in peripheral blood, the “number of CFU generated by MNCs in peripheral blood” value is “can promote the numbers of both CFU and CFU-GM”; the “number of CFU-GM generated by MNCs in peripheral blood” value was “can promote the numbers of both CFU and CFU-GM”. Moreover, in assay [2], the “survival rate of mice receiving a lethal irradiation” value is “survival rate of the mice receiving a lethal irradiation can be increased”. Moreover, the “mobilization of hematopoietic stem cells into peripheral blood” value with hematopoietic stem cells is listed as “can efficiently mobilize hematopoietic stem cells into peripheral blood”.
